Consider 60 compounds from US20190374526A1, “Substituted Heterocyclic Compounds as Inhibitors of PRDM9” (Merck Sharp & Dohme Corp., priority 2018, published 2019).

The experiment deals with T1, hPRDM9 (amino acids 195-385) (Homo sapiens, UniProt Q9NQV7).
T1 construct: 1.25 nM hPRDM9 (amino acids 195-385)
T1 sequence (Q9NQV7 195-385): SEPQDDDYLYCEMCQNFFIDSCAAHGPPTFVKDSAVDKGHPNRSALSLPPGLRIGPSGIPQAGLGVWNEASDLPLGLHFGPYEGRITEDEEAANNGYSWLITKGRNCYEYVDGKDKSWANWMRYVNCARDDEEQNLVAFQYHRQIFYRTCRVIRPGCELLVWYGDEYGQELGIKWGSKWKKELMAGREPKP
In words: PRDM9 biochemical assay (radiometric, 3[H] methyl transfer from SAM to biotinylated histone H3 peptide). The conditions noted are these: 1 nM hPRDM9, 1 μM biotinylated H3(1-25)K4 peptide, 5 μM 3[H]-SAM, 55 μM un-labeled SAM, 25° C., 30 minutes. On the procedure: The PRDM9 biochemical assay was carried out using a radiometric format involving the transfer of ^3[H] methyl group from S-adenosyl methionine (SAM) to a biotinylated histone H3 peptide (H3(1-25)K4). 10 mM compounds in DMSO were diluted 20 fold in assay buffer (10 mM Tris-HCl, pH 8.5, 10 mM DTT, and 0.01% Triton X-100) before adding […] to a well in a 384 well polypropylene microplate plate and adding 8 μl of reaction mix (1.25 nM hPRDM9 (amino acids 195-385), 1.25 μM biotinylated H3 peptide in assay buffer). The ^3[H]-SAM and cold SAM stock solutions were diluted to 50 μM and 550 μM respectively in assay buffer before aliquoting 1 μl of 50 μM ^3[H]-SAM, 550 μM SAM into each well to initiate the reaction. The assay was performed at 25° C. at the final concentrations of 1 nM hPRDM9, 1 μM peptide, 5 μM ^3[H]-SAM, and 55 μM un-labeled SAM in assay buffer. The reaction was quenched after 30 minutes by adding 25 μl 7.5 M Guanidine-HCl. Quenched reactions were transferred to streptavidin coated Flashplates, diluted two fold in assay buffer, incubated for 1 hour, and read on a Perkin Elmer Topcount instrument. Compound activity was expressed relative to activity of 0.5% (v/v) DMSO treated samples and fit to a four parameter logistic equation to determine IC50 values.

A value given as a limit tells only on which side of the number the result lay.

Regarding `COc1cc(OC)cc(-c2noc(N3CCOC4(CN(c5ccnc(C)c5)C4)C3)n2)c1` [Compound 139], the IC50 (as a rule, the midpoint of a concentration-inhibition curve) was determined as 0.393 µM.

`COc1cccc(-c2noc(N3CCCC4(CN(c5ccnc(C)c5)C4)C3)n2)c1` [Compound 142] displayed a half-maximal inhibitory concentration (IC50) of 0.203 µM.

Compound `Cc1cc(N2CC3(CCCN(c4nc(Cc5ccc(F)cc5)no4)C3)C2)ccn1` [Compound 143] showed a half-maximal inhibitory concentration (IC50) of no less than 50 µM.

Turning to `Cc1cc(N2CC3(CCCN(c4nc(-c5ccc(Cl)cc5)no4)C3)C2)ccn1` [Compound 144], the IC50 stood at 42.3 µM.

As to `COc1ccc(-c2noc(N3CCCC4(CN(c5ccnc(C)c5)C4)C3)n2)cc1OC` [Compound 145], the IC50 was determined as 4.7 µM.

As to `Cc1cc(N2CC3(CCCN(c4nc(C5CC5)no4)C3)C2)ccn1` [Compound 146], the IC50 was no less than 50 µM.

`Cc1cc(N2CC3(CCCN(c4nc(-c5cccc(Cl)c5)no4)C3)C2)ccn1` [Compound 147] came in with an IC50 of 0.263 µM.

On to `Cc1cc(N2CC3(CCCN(c4nc(-c5ccccc5Cl)no4)C3)C2)ccn1` [Compound 148], for which the IC50 is no less than 50 µM.

In turn, `COc1cc(OC)cc(-c2noc(N3CC4(CCC3=O)CCN(c3ccnc(C)c3)CC4)n2)c1` [Compound 150] came in with an IC50 of 0.066 µM.

As to `COc1cccc(-c2noc(N3CC4(CCC3=O)CCN(c3ccnc(C)c3)CC4)n2)c1` [Compound 153, 2-(3-(3-methoxyphenyl)-1,2,4-oxadiazol-5-yl)-9-(2-methylpyridin-4-yl)-2,9-diazaspiro[5.5]undecan-3-one], the IC50 worked out at 44.8 µM.

`Cc1cc(NC2CC3(CCN(c4nc(-c5cc(Cl)cc(Cl)c5)no4)C3)C2)ccn1` (stereo not drawn) [Compound 154, 6-(3-(3,5-dichlorophenyl)-1,2,4-oxadiazol-5-yl)-N-(2-methylpyridin-4-yl)-6-azaspiro[3.4]octan-2-amine]: the IC50 came out at 3.45 µM.

`Cc1cc(NC2CC3(CCN(c4nc(-c5cc(Cl)cc(Cl)c5)no4)C3)C2)ccn1` (stereo not drawn) [Compound 155]: the midpoint of inhibition, the IC50, lay at 3.46 µM.

`Cc1cc(NC2CC23CCN(c2nc(-c4cc(Cl)cc(Cl)c4)no2)C3)ccn1` (stereo not drawn) [Compound 156]: 16 µM corresponded to half-maximal inhibition (IC50).

The compound `Cc1cc(NC2CC23CCN(c2nc(-c4cc(Cl)cc(Cl)c4)no2)C3)ccn1` (stereo not drawn) [Compound 157] came in with an IC50 of 31 µM.

Take `COc1cc(OC)cc(-c2noc(N3CCC4(CC5CCC(C4)N5c4ccnc(C)c4)C3)n2)c1` (stereo not drawn) [Compound 158]: it took 3.81 µM to reach half-maximal inhibition (IC50).

In turn, `COc1cc(OC)cc(-c2noc(N3CCO[C@]4(C[C@H]5CC[C@@H](C4)N5c4ccnc(C)c4)C3)n2)c1` [Compound 160] displayed an IC50 of 0.35 µM.

In turn, `COc1cc(OC)cc(-c2noc(N3CCN(C)C4(CCN(c5ccnc(C)c5)CC4)C3)n2)c1` [Compound 161] registered an IC50 of 0.049 µM.

`COc1cc(OC)cc(-c2nnc(N3CCN(C)C4(CCN(c5ccnc(C)c5)CC4)C3)o2)c1` [Compound 162] returned an IC50 of 0.47 µM.

As for `COc1cc(OC)cc(-c2noc(N3CC(C)(C)OC4(CN(c5ccnc(C)c5)C4)C3)n2)c1` [Compound 163], inhibition was half-maximal at 3.08 µM (IC50).

`COc1cc(OC)cc(-c2noc(N3CCN(C)C4(CN(c5ccnc(C)c5)C4)C3)n2)c1` [Compound 164] registered a half-inhibitory concentration (IC50) of 0.315 µM.

For `COc1cccc(-c2noc(N3CCOC4(CCN(c5ccnc(C)c5)CC4)C3)n2)c1` [Compound 166], half-maximal inhibition (IC50) was put at 0.8 µM.

Turning to `COc1cccc(-c2noc(N3CC4CC4(CNc4ccnc(C)c4)C3)n2)c1` (stereo not drawn) [Compound 167], the IC50 stood at 23 µM.

Compound `Cc1cc(NCC23CC2CN(c2nc(-c4cc(Cl)cc(Cl)c4)no2)C3)ccn1` (stereo not drawn) [Compound 168] displayed an IC50 of 9 µM.

For the compound `COc1cccc(-c2noc(N3CCOC(CCNc4ccnc(C)c4)C3)n2)c1` (stereo not drawn) [Compound 169], half-maximal inhibition (IC50) was put at 2 µM.

`Cc1cc(NCCC2CN(c3nc(-c4cc(Cl)cc(Cl)c4)no3)CCO2)ccn1` (stereo not drawn) [Compound 170] returned an IC50 of 0.4 µM.

For the compound `COc1cccc(-c2noc(N3CCC(CCNc4ccnc(C)c4)C3)n2)c1` (stereo not drawn) [Compound 171], half-maximal inhibition (IC50) required 4 µM.

For `Cc1cc(NCC2CC(C)N(c3nc(-c4cc(Cl)cc(Cl)c4)no3)C2)ccn1` (stereo not drawn) [Compound 172], half-maximal inhibition (IC50) was put at 5.29 µM.

Take `Cc1cc(NCC2CC(C)N(c3nc(-c4cc(Cl)cc(Cl)c4)no3)C2)ccn1` (stereo not drawn) [Compound 173]: the IC50 stood at 5.5 µM.

`Cc1cc(NCC2CN(c3nc(-c4cc(Cl)cc(Cl)c4)no3)CCC2C)ccn1` (stereo not drawn) [Compound 174] returned an IC50 of 1.58 µM.

`Cc1cc(NCCC2CN(c3nc(-c4cc(Cl)cc(Cl)c4)no3)c3ccccc32)ccn1` (stereo not drawn) [Compound 175] registered an IC50 of 3.81 µM.

The compound `Cc1cc(NCC2CN(c3nc(-c4cc(Cl)cc(Cl)c4)no3)CCC2C)ccn1` (stereo not drawn) [Compound 176] came in with a 50% inhibitory concentration (IC50) of 13.6 µM.

Regarding `Cc1cc(NC2CCC3CN(c4nc(-c5cc(Cl)cc(Cl)c5)no4)CC32)ccn1` (stereo not drawn) [Compound 177], the IC50 worked out at 8.64 µM.

As for `Cc1cc(NC2CCC3CN(c4nc(-c5cc(Cl)cc(Cl)c5)no4)CC32)ccn1` (stereo not drawn) [Compound 178], the IC50 came out at 1.15 µM.

In turn, `COc1cc(OC)cc(-c2noc(N3Cc4ccccc4C4(CCN(c5ccnc(C)c5)CC4)C3)n2)c1` [Compound 180] came in with an IC50 of 0.08 µM.

`COc1cc(OC)cc(-c2noc(N3CC(c4ccccc4)OC4(CCN(c5ccnc(C)c5)CC4)C3)n2)c1` (stereo not drawn) [Compound 181] gave an IC50 of 2.14 µM.

`COc1cc(OC)cc(-c2noc(N3CCCC4(CN(c5ccnc(C)c5)C4)C3)n2)c1` [Compound 182] displayed an IC50 of 0.163 µM.

With `COc1cc(OC)cc(-c2noc(N3CC(F)(F)OC4(CCN(c5ccnc(C)c5)CC4)C3)n2)c1` [Compound 184], the IC50 came to 0.814 µM.

Consider `COc1cc(OC)cc(-c2noc(N3CCC(O)C4(CCN(c5ccnc(C)c5)CC4)C3)n2)c1` (stereo not drawn) [Compound 186], for which the IC50 amounted to 0.217 µM.

The compound `COc1cc(OC)cc(-c2noc(N3CCCC4(CCN(c5cc(C)nc(F)c5)CC4)C3)n2)c1` [Compound 188] displayed an IC50 of 45 µM.

Take `COc1cc(N2CC3(CCCN(c4nc(-c5cc(Cl)cc(Cl)c5)no4)C3)C2)ccn1` [Compound 193]: the IC50 came to 2 µM.

For the compound `Clc1cc(Cl)cc(-c2noc(N3CCCC4(CN(c5cccnn5)C4)C3)n2)c1` [Compound 196], half-maximal inhibition (IC50) was put at 19 µM.

As to `N#Cc1ccnc(N2CC3(CCCN(c4nc(-c5cc(Cl)cc(Cl)c5)no4)C3)C2)c1` [Compound 197], the IC50 came to 2 µM.

As for `OCc1ncc(N2CC3(CCCN(c4nc(-c5cc(Cl)cc(Cl)c5)no4)C3)C2)cn1` [Compound 200], the IC50 was 19 µM.

On to `Clc1cc(Cl)cc(-c2noc(N3CCCC4(CN(c5cnccn5)C4)C3)n2)c1` [Compound 202], for which inhibition was half-maximal at 2 µM (IC50).

As to `Clc1cc(Cl)cc(-c2noc(N3CCCC4(CN(c5ccncc5)C4)C3)n2)c1` [Compound 203], it took 1 µM to reach half-maximal inhibition (IC50).

Compound `Cc1cc(N2CC3(CCCN(c4nc(-c5cc(Cl)cc(Cl)c5)no4)C3)C2)cc(C)n1` [Compound 205] yielded an IC50 of 0.16 µM.

In the case of `CC(C)c1cc(N2CC3(CCCN(c4nc(-c5cc(Cl)cc(Cl)c5)no4)C3)C2)ccn1` [Compound 206], inhibition was half-maximal at 1.6 µM (IC50).

`CCc1cc(N2CC3(CCCN(c4nc(-c5cc(Cl)cc(Cl)c5)no4)C3)C2)ccn1` [Compound 207] showed an IC50 of 0.4 µM.

For `O=c1cc(N2CC3(CCCN(c4nc(-c5cc(Cl)cc(Cl)c5)no4)C3)C2)cc[nH]1` [Compound 208], the IC50 is 5 µM.

As for `Cc1cc(N2CCCC3CN(c4nc(-c5cc(Cl)cc(Cl)c5)no4)CC32)ccn1` (stereo not drawn) [Compound 210], the IC50 was 35 µM.

Compound `Cc1cc(N2CCC(C)(Nc3nc(-c4cc(Cl)cc(Cl)c4)no3)C2)ccn1` (stereo not drawn) [Compound 211] gave an IC50 of 24 µM.

Take `Cc1cc(N2CC3CCN(c4nc(-c5cc(Cl)cc(Cl)c5)no4)C3C2)ccn1` (stereo not drawn) [Compound 212]: inhibition was half-maximal at 24 µM (IC50).

As for `Cc1cc(N2CCC3C2CCCN3c2nc(-c3cc(Cl)cc(Cl)c3)no2)ccn1` (stereo not drawn) [Compound 213], inhibition was half-maximal at 1 µM (IC50).

As for `Cc1cc(N2CCC3(CC2)CCN(c2nc(-c4cc(Cl)cc(Cl)c4)no2)C3)ccn1` [Compound 214], the IC50 stood at 0.464 µM.

As for `Cc1cc(N2CCC(CNc3nc(-c4cc(Cl)cc(Cl)c4)no3)C2)ccn1` (stereo not drawn) [Compound 215], the IC50 came out at 11 µM.

`Cc1cc(N2CCC3(CCCN(c4nc(-c5cc(Cl)cc(Cl)c5)no4)C3)CC2)ccn1` [Compound 216] came in with an IC50 of 0.246 µM.

In the case of `Cc1cc(N2CC[C@H](Nc3nc(-c4cc(Cl)cc(Cl)c4)no3)C[C@@H]2C)ccn1` [Compound 217], inhibition was half-maximal at 29.2 µM (IC50).

Consider `Cc1cc(N2CCC3C(CCN3c3nc(-c4cc(Cl)cc(Cl)c4)no3)C2)ccn1` (stereo not drawn) [Compound 218], for which the IC50 was 35.5 µM.

Take `Cc1cc(N2CCC3CN(c4nc(-c5cc(Cl)cc(Cl)c5)no4)CC3C2)ccn1` (stereo not drawn) [Compound 219]: the IC50 turned out to be 4.3 µM.

On to `Cc1cc(NCC2=CCCN(c3nc(-c4cc(Cl)cc(Cl)c4)no3)C2)ccn1` [Compound 220], for which half-maximal inhibition (IC50) required 9.2 µM.
